Assay results from PubChem BioAssay (NCI).
Values joined by “and” are separate entries in the source; they are usually repeats but may differ in a detail not shown here. Equal values may be shown once.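 These data come from cells grown in 96-well plates and exposed to compound for 48 hours at five concentrations. At the GI50, growth is halved. TGI: total growth inhibition.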

Columns and labels:
[1] = system: T-47D breast; assay: NCI tumour cell line growth inhibition, 48 h
[2] = system: MDA-N; assay: NCI tumour cell line growth inhibition, 48 h

O=C1OC(CN2CCOCC2)CN1/N=C/c1ccc([N+](=O)[O-])o1 (stereo not given)
TGI [1]: > 100 µM

Cc1cccc2c(N)c3ccccc3nc12
GI50 [1]: 2.19 µM | TGI [1]: 6.85 µM

Cc1nc(Nc2nc3ccccc3o2)nc(-c2cccc([N+](=O)[O-])c2)c1C(=O)Nc1ccc(F)c(Cl)c1
GI50 [1]: 1.41 µM | TGI [1]: 9.18 µM

CNC(=O)OCC1C2=C(C(=O)C(C)=C(N)C2=O)N2CC3C(N3C)C12OC (stereo not given)
TGI [1]: > 100 µM

O=C1OC(c2ccccc2)=N/C1=C\c1cccc(F)c1
TGI [2]: > 100 µM | TGI [1]: > 100 µM

Cn1cnc([N+](=O)[O-])c1Sc1ncn[nH]1
GI50 [1]: 17 µM | TGI [1]: > 100 µM

COc1ccc(OC)c(Nc2nc(-c3c(C)nc4sccn34)cs2)c1
GI50 [1]: 5.43 µM | TGI [1]: > 100 µM

Cc1cc2c(cc1N)C(C)C1(CCC(=O)N2Cc2ccccc2)OCCO1 (stereo not given)
TGI [2]: > 100 µM | TGI [1]: > 100 µM

O=C1CC(c2ccc(Cl)cc2)Oc2ccccc21 (stereo not given)
TGI [1]: > 100 µM

COc1ccc(C2=CC(c3ccc(OC)c(OC)c3)c3c(c4ccccc4oc3=O)O2)cc1OC (stereo not given)
GI50 [1]: 3.66 µM | TGI [1]: > 100 µM

O=C1OC(OCC#CCOC2OC(=O)C(Cl)=C2Cl)C(Cl)=C1Cl (stereo not given)
TGI [1]: 36.7 µM

C=C1[C@@H]([C@@]2(C)C=CC(=O)C(C)(C)[C@@H]2CC(=O)OC)CC[C@@]2(C)C(c3ccoc3)OC(=O)[C@H]3O[C@]132 (stereo not given in full)
TGI [2]: > 100 µM | TGI [1]: > 100 µM

Clc1nc(Cl)c2ncn(Cc3ccc(Cn4cnc5c(Cl)nc(Cl)nc54)cc3)c2n1
GI50 [1]: 12.4 µM | TGI [1]: > 36.7 µM

Cn1c(=O)c(Oc2ccc(F)cc2F)cc2cnc(NCCS(C)(=O)=O)nc21
GI50 [1]: > 25 µM | TGI [1]: > 25 µM

COc1cc(/C=C/C(=O)c2cccnc2Nc2ccc(F)cc2)cc(OC)c1OC
GI50 [1]: 3.96 µM | TGI [1]: 25 µM

Cc1cc(OCc2nnc3n2N=C(c2ccc(Cl)cc2Cl)CS3)ccc1Cl
GI50 [1]: 40.5 µM | TGI [1]: > 100 µM

CC(C)CCN[C@@H]1CCc2cc(O)c(N3CC(=O)NS3(=O)=O)c(F)c2C1
GI50 [1]: > 100 µM | TGI [1]: > 100 µM

CCCNc1nc2ccccc2c2c1S(=O)(=O)c1ccc(Cl)cc1C2=O
GI50 [1]: 1.35 µM | TGI [1]: > 50 µM

CC(C)COC(=O)c1ccc2[nH]c(O)c(C=Nc3ccc(S(N)(=O)=O)cc3)c2c1
GI50 [1]: 2.51 µM | TGI [1]: 12.6 µM

COc1ccc2nc(NC(=O)c3cccnc3Nc3cc(OC)c(OC)c(OC)c3)sc2c1
GI50 [1]: 5.06 µM | TGI [1]: 51.3 µM

CN1C(Cl)=NS(=O)(=O)c2ccccc21
TGI [2]: > 100 µM | TGI [1]: > 100 µM

COc1cc2c3c(n(CCCN=[N+]=[N-])c(=O)c2cc1OC)-c1ccc(N(C)C)cc1C3=O
GI50 [1]: > 100 µM | TGI [1]: > 100 µM

O=S(=O)(NCCNc1nccc(-c2c(-c3ccc(F)cc3)nc3sccn23)n1)c1ccccc1
GI50 [1]: 1.79 µM | TGI [1]: 27.3 µM

C=CS(=O)(=O)CCN1CC1
TGI [2]: > 10 µM | TGI [1]: > 10 µM

O=C(Nc1ccc(I)cc1F)c1cc(Cl)ccc1O
GI50 [1]: 0.294 µM | TGI [1]: 2.57 µM

c1ccc(CNc2nc(Nc3ccccc3)nc3ccccc23)cc1
GI50 [1]: 1.72 µM | TGI [1]: 4.46 µM

Oc1ccc(Cl)cc1CNc1nc2ccccc2[nH]1
GI50 [1]: 13.3 µM | TGI [1]: 47.9 µM

CN(/N=N/c1nc(OCc2ccccc2)c2[nH]cnc2n1)C(=O)Oc1ccc([N+](=O)[O-])cc1
GI50 [1]: 14.2 µM | TGI [1]: 32.7 µM

NCCSCCc1ccccc1
TGI [2]: > 100 µM | TGI [1]: > 100 µM

O=C(Nc1ccc(Cl)c(Cl)c1)OCCN1c2ccccc2Sc2ccccc21
TGI [2]: > 10 µM | TGI [1]: > 10 µM

C=C1c2c(Cl)ccc(O)c2C(O)=C2C(=O)[C@]3(O)C(O)=C(C(N)=O)C(=O)[C@@H](N(C)C)[C@@H]3[C@@H](O)[C@H]12
GI50 [1]: 1.07 µM | TGI [1]: 4.06 µM

O=C1C=CC(O)C2C1CC13SSC4(CC5C(=O)C=CC(O)C5N4C1=O)C(=O)N23 (stereo not given)
TGI [1]: 2.53 µM

OCCN1CCN(CC/C=C2\c3ccccc3Sc3ccc(Cl)cc32)CC1
GI50 [1]: 2.9 µM and 2.79 µM | TGI [1]: 10.4 µM and 11.5 µM

ClCc1ccc(Cn2cnc3c(Cl)nc(Cl)nc32)cc1
GI50 [1]: 2.18 µM | TGI [1]: 5.44 µM

C=CCCCc1ccc(C(O)CCCCCCCCCCCC)o1 (stereo not given)
GI50 [1]: 15.1 µM | TGI [1]: 34.6 µM

COc1ccc(Nc2cc(C)nc(N3CCN(c4ccnc5cc(Cl)ccc45)CC3)n2)cc1
GI50 [1]: 1.99 µM | TGI [1]: 6.59 µM

COc1cc(Cl)cc(-c2nn(-c3cccc(NC(=O)Nc4ccc(Cl)c(C(F)(F)F)c4)c3)cc2-c2ccncc2)c1
GI50 [1]: 1.25 µM | TGI [1]: 8.02 µM

Cc1ccc(-c2nc(N3CCCNCC3)c3oc(-c4ccc(C)cc4)nc3n2)cc1
GI50 [1]: 1.94 µM | TGI [1]: 4.17 µM

CCN(CC)CCOc1ccc(C(=O)/C=C\c2ccc(Cl)cc2Cl)cc1
GI50 [1]: 11.9 µM | TGI [1]: 33.6 µM

N#Cc1cc(S(=O)(=O)Nc2nc3ccccc3s2)c(SCc2ccccc2)cc1Cl
GI50 [1]: 22.8 µM | TGI [1]: 73.7 µM
